{
  "source": "paper PMC7044277",
  "about": "(Nature Communications, 2020)",
  "assay_type_in_all_cases": "cell-based",
  "key": {"320 non-olfactory GPCRs [1]": {"target": "T1, 320 non-olfactory GPCRs (Homo sapiens, UniProt P24530)", "T1 construct": "expressed in transfected cells; host or cells: HTLA cells", "T1 sequence (P24530 27-442)": "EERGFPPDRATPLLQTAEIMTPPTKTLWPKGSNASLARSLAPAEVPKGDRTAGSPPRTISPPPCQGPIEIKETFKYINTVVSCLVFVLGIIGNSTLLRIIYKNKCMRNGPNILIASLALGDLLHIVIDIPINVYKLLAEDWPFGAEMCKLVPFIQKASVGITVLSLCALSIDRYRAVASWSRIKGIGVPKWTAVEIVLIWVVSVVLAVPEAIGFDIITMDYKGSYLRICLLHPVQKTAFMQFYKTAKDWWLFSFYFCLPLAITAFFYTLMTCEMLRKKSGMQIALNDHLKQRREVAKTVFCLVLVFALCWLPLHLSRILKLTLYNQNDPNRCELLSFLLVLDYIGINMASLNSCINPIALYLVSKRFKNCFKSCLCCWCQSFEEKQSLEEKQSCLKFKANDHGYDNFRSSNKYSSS"}, "320 non-olfactory GPCRs [2]": {"target": "320 non-olfactory GPCRs (Homo sapiens, UniProt P08172)", "sequence (P08172 whole entry)": "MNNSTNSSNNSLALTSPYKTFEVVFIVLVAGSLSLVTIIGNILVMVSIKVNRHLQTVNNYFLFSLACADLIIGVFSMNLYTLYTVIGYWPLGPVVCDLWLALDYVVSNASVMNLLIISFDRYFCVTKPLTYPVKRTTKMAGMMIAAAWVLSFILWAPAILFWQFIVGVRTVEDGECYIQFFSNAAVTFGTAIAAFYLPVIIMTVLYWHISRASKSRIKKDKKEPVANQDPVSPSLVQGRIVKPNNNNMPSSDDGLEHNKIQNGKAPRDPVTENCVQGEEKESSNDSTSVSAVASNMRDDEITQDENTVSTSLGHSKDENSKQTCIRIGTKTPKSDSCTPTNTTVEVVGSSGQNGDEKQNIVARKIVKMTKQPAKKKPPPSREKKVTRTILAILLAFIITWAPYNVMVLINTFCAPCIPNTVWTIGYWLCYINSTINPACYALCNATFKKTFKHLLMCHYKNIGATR"}, "320 non-olfactory GPCRs [3]": {"target": "T2, 320 non-olfactory GPCRs (Homo sapiens, UniProt P35410)", "T2 construct": "expressed in transfected cells; host or cells: HTLA cells", "T2 sequence (P35410 whole entry)": "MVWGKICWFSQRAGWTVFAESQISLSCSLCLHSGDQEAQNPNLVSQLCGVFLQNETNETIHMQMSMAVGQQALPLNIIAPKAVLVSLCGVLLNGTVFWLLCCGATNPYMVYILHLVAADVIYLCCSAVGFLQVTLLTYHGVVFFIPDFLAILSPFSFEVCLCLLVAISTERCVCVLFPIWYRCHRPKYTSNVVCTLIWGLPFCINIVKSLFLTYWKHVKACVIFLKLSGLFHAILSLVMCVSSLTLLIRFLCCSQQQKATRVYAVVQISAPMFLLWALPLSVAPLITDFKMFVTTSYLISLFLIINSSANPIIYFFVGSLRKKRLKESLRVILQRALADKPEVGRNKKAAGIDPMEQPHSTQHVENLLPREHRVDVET", "details": "receptor MAS1L; replicate values, Fig_4g"}, "320 non-olfactory GPCRs [4]": {"target": "T3, 320 non-olfactory GPCRs (Homo sapiens, UniProt Q9H244)", "T3 construct": "expressed in transfected cells; host or cells: HTLA cells", "T3 sequence (Q9H244 whole entry)": "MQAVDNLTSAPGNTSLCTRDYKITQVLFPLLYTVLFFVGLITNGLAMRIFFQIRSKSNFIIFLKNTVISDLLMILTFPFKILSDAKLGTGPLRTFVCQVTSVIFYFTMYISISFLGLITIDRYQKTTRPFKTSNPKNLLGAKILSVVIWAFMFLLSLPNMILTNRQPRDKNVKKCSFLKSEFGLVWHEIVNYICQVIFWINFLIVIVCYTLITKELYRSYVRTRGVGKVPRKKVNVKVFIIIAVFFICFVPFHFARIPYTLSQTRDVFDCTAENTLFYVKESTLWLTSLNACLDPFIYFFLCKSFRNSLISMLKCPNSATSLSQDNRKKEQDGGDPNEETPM", "details": "receptor P2RY12; replicate values, Fig_4g"}},
  "note": "“And” between values parts separate entries of the source, which are not always exact repeats. Identical values can stand only once.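 Wherever Fold of Basal is given: compound tested at 1 µM final concentration.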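 Wherever GPCRome agonism screen response is given: fold over basal response of each receptor without drug.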",
  "data": [
    {"smiles": "CCOc1cccc2cc(C(C)NCC3(O)CCCCC3)oc12", "note": "(stereo not shown) [O4LE6]", "values": [
      {"measurement": "Fold of Basal", "setting": "320 non-olfactory GPCRs [1]", "value": "0.7302 and 0.8478 and 0.8324 and 1.412"},
      {"measurement": "Fold of Basal", "setting": "320 non-olfactory GPCRs [2]", "value": "1.524 and 1.414 and 0.8585 and 0.8596"},
      {"measurement": "GPCRome agonism screen response", "setting": "320 non-olfactory GPCRs [3]", "value": "0.5688 and 0.6917 and 1.207 and 0.7272"},
      {"measurement": "GPCRome agonism screen response", "setting": "320 non-olfactory GPCRs [4]", "value": "1.331 and 0.8524 and 1.417 and 1.455"}
    ]}
  ]
}
